The values below come from ChEMBL document CHEMBL1201862, “PubChem BioAssay data set” (2004).

Each structure is given as a SMILES string. Activity calls are given as the source filed them.

Experiment [1] concerns the target T1, Carboxy-terminal domain RNA polymerase II polypeptide A small phosphatase 1 (Homo sapiens, UniProt Q9GZU7).
T1 sequence (Q9GZU7 whole entry): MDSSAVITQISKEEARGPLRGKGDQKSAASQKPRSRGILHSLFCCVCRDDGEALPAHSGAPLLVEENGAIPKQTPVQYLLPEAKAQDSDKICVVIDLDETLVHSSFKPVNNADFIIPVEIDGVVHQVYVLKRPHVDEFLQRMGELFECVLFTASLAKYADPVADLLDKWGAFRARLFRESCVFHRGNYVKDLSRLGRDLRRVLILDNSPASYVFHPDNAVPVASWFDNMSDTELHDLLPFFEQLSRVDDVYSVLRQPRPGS
The experiment in a line: CTDSP1 inhibitors, concentration-response, biochemical, absorbance readout, ultra-high-throughput screen actives (AID 540297). In kind it is functional.

Experiment [2] deals with T2, Cytochrome P450 1A2 (Homo sapiens, UniProt P05177).
T2 sequence (P05177 whole entry): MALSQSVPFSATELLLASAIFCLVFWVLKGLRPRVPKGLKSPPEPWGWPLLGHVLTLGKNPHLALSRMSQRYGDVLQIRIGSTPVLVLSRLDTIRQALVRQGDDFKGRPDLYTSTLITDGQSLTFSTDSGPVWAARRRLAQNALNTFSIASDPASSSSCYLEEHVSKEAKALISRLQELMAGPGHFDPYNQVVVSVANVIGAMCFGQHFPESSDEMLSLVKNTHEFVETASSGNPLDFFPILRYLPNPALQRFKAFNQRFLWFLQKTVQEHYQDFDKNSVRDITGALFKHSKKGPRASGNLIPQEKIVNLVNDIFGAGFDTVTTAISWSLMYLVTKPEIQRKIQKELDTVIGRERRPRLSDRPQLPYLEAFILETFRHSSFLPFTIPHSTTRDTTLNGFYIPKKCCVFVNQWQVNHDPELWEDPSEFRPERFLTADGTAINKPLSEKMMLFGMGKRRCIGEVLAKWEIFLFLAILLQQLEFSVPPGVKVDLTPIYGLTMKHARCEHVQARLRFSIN

In experiment [3] the target is T3, Endoribonuclease toxin MazF (Escherichia coli K-12, UniProt P0AE70).
T3 sequence (P0AE70 whole entry): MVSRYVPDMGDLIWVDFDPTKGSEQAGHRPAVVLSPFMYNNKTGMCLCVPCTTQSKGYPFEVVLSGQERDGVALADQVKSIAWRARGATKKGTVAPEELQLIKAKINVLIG
Briefly: activation of MazEF endoribonuclease cleavage – biochemical, fluorescence, single-stranded RNA substrate, uHTS hits, dose response (AID 588481). In kind it is functional.

In experiment [4] the target is T3, Endoribonuclease toxin MazF. The experiment in a line: substrate-only fluorescence increase artefacts – biochemical, single-stranded RNase substrate, counter-screen for MazEF activator project, dose response (AID 588502). It counts as functional.
In experiment [5] the target is T4, DNA repair protein RAD52 homolog (Homo sapiens, UniProt P43351).
T4 sequence (P43351 whole entry): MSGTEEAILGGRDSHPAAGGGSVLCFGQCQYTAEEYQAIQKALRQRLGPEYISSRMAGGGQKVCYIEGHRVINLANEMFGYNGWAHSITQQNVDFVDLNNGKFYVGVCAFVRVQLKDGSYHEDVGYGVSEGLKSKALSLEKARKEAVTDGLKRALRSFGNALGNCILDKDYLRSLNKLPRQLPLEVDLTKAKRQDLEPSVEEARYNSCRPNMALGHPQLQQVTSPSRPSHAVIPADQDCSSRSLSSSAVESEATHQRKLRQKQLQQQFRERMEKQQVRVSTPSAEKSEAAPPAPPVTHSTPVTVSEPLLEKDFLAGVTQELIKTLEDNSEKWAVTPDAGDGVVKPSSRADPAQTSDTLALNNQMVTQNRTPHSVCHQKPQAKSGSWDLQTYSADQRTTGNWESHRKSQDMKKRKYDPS
In kind it is functional, biochemical.

A short description of experiment [6]: reduction of Shn3 3'UTR-driven luciferase in osteoblasts – cell-based, Clone20 osteoblasts, firefly luciferase, cherry-picked, dose response (AID 624132).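 Note: firefly luciferase luminescence from reporter carrying the Shn3 3'UTR in osteoblasts.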 In kind it is functional.
The nature of experiment [7]: loss of viability in HepG2 cells – cell-based, CellTiter-Glo, cherry-picked, cytotoxicity control for Shn3 inhibitor project, dose response (AID 624134). It counts as functional.
The nature of experiment [8]: non-specific 3'UTR reporter inhibition in Clone20-Shn3RL – cell-based, Renilla luciferase, cherry-picked, counter-screen for Shn3 inhibitor project, dose response (AID 624133). In kind it is functional.
Experiment [9] has as its target Paired box protein Pax-8 (Homo sapiens, UniProt Q06710). The experiment in a line: PAX8 transcriptional activity inhibition in RMG-I – RMG-I cells, luciferase, cherry-pick, dose response (AID 687027).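 Note: luciferase reporter driven by Pax8 target thyroperoxidase promoter measured by SteadyGlo luminescence.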 In kind it is functional, cell-based.
Experiment [10] deals with Streptococcus sp. 'group A'. Briefly: Streptococcus pyogenes SK(-)GAS viability under kanamycin – luminescence, BacTiterGlo, confirmation, counter-screen for streptokinase expression inhibitor project, dose response (AID 1900). In kind it is functional, organism-based.
The target in experiment [11] is T5, Streptokinase A (Streptococcus pyogenes serotype M1, UniProt P10520).
T5 sequence (P10520 whole entry): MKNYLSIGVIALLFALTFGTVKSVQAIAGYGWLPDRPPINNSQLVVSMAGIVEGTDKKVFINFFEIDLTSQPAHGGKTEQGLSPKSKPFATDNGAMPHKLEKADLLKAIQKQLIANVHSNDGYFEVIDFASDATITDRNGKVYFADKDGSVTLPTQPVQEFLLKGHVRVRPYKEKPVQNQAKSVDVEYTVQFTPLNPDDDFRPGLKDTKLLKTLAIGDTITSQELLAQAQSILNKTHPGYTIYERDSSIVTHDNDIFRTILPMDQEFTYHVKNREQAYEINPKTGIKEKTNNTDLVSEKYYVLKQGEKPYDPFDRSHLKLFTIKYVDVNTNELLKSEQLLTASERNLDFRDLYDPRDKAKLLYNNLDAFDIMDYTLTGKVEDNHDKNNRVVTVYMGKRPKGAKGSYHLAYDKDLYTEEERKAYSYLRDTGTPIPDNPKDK
The experiment in a line: viability-normalized secreted streptokinase activity reduction – plasminogen activation absorbance, OD405, dose response (AID 1914).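 Note: secreted streptokinase activity via plasminogen activation per viability signal from cell pellet.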 It counts as functional, Streptococcus pyogenes M1 GAS.

Experiment [12] relates to Streptococcus. Briefly: GAS UMAA2166 growth inhibition – luminescence, BacTiterGlo, counter-screen for streptokinase expression inhibitor project, dose response (AID 1915).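 Note: potency for reduction of bacterial viability or growth.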 In kind it is functional, organism-based.
The target in experiment [13] is T6, Microphthalmia-associated transcription factor (Homo sapiens, UniProt O75030).
T6 sequence (O75030 whole entry): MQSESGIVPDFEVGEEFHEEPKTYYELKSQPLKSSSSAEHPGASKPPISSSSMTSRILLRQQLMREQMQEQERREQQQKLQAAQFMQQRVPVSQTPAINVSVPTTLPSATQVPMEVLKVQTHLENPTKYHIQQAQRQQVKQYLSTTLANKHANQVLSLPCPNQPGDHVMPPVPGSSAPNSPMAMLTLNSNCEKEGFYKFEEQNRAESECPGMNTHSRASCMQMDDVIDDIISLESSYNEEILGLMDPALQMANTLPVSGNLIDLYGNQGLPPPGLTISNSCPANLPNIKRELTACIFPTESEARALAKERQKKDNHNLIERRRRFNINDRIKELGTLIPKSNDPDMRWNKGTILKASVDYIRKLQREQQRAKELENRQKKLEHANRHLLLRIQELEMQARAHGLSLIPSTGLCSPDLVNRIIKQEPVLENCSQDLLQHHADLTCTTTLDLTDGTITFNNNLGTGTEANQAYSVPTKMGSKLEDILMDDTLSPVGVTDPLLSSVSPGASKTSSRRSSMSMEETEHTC
Briefly: reducers of TRPM1 reporter luminescence, concentration series – cell-based, SK-MEL-5, cherry-picked, set 3, MITF inhibitor project, dose response (AID 493073).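 Note: SK-MEL-5 melanoma cells with luciferase driven by the MITF target TRPM1 promoter.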 In kind it is functional.

Experiment [14] concerns the target T7, Corticotropin-releasing factor receptor 2/Corticotropin-releasing factor-binding protein (Homo sapiens, UniProt P24387+Q13324).
T7 sequence (Q13324 whole entry): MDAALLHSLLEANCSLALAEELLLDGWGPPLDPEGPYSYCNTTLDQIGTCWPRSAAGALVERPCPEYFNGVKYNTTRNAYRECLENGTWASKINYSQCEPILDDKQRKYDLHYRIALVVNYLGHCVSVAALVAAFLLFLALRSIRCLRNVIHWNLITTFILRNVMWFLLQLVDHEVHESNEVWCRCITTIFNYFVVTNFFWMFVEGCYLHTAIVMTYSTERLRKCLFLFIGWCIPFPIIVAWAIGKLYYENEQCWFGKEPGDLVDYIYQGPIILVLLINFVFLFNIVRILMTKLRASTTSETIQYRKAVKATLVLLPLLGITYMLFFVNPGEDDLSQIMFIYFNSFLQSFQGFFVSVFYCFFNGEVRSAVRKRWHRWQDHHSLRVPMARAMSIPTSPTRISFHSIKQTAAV
T7 sequence (P24387 whole entry): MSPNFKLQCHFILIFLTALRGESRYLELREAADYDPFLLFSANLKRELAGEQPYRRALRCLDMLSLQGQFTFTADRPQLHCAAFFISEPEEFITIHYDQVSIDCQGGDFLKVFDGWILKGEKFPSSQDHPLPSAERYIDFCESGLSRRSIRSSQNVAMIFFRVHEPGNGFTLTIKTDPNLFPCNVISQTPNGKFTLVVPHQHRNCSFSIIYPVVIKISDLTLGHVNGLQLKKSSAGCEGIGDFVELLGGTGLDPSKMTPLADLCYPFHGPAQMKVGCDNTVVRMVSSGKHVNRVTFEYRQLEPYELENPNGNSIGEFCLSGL
The experiment in a line: activators of CRF receptor 2 with binding protein – uHTS hits, confirmation (AID 602473). Particulars: read-out: EC50_Mean. It counts as functional.

Experiment [15] addresses T8, RNA-binding protein pos-1 (Caenorhabditis elegans, UniProt G5EF15).
T8 sequence (G5EF15 whole entry): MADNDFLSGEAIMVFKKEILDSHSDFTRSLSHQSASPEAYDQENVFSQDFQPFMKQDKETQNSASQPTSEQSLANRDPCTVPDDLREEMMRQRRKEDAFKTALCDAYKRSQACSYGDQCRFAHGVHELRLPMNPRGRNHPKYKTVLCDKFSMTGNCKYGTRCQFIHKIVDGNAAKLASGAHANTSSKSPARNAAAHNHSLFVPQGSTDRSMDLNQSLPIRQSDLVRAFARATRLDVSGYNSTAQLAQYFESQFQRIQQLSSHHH
The experiment in a line: disruptors of C. elegans POS-1 RNA interaction – biochemical, fluorescence polarization, dose response (AID 1964).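 Note: purified POS-1 fused to maltose binding protein made in E. coli; potency of compounds blocking POS-1 binding to fluorescent RNA.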

In experiment [16] the target is T9, Zinc finger protein mex-5 (Caenorhabditis elegans, UniProt Q9XUB2).
T9 sequence (Q9XUB2 whole entry): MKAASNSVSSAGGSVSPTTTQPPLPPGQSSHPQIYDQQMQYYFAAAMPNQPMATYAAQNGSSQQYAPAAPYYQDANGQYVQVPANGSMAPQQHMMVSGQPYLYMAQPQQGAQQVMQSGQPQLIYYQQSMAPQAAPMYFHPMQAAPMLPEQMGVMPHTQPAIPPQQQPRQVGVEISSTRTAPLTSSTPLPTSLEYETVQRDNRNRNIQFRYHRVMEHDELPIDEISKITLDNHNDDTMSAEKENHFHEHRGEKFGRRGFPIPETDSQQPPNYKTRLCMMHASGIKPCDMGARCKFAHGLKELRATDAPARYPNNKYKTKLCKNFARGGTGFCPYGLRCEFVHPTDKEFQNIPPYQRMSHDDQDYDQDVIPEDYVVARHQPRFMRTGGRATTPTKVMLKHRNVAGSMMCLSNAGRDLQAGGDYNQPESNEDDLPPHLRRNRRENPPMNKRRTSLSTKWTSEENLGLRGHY
The experiment in a line: potency of MEX-5 RNA-binding blockers – biochemical, C. elegans, fluorescence polarization, dose response (AID 1960).

Paired box protein Pax-8, sequence (Q06710 whole entry): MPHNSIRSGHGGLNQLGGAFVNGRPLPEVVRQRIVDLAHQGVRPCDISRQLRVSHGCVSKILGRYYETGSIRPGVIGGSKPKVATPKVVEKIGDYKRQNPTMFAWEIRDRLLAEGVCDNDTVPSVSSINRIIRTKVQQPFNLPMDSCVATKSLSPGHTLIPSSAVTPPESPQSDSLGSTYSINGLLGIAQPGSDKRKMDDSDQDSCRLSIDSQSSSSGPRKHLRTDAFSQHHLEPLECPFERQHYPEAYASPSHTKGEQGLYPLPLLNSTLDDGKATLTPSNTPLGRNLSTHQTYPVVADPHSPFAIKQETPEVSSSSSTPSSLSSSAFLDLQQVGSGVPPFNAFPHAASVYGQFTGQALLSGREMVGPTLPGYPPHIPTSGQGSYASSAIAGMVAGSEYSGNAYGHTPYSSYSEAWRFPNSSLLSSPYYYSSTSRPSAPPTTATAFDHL

Regarding `O=C(N/N=C/c1cccc(OC2CSC2)c1)c1ccccc1O`, the IC50 in experiment [1] was 6.78 µM (active). Besides, in experiment [2], the AC50 is 3.16 µM (inconclusive).

On to `O=[N+]([O-])c1ccc(/C=C/c2ccc3cccc(O)c3n2)cc1`, for which the EC50 in [3] and in experiment [4] was > 99 µM (inactive) each time.

Take `CN1CCN(CCCNc2nc3ccccc3c3nc(-c4ccccc4)nn23)CC1`: in [5], the AC50 is 14.2 µM (active).

Take `Cc1cc(C)c(C#N)c(SCC(=O)c2cccs2)n1`: the figures for the EC50 in experiment [3] and in [4] were 18 µM (active) and > 99 µM (inactive), respectively.

With `CCn1c(/C=C/c2c(C)n(CC)c3ccccc23)nc2ccccc2c1=O`, the EC50 in experiment [3] and in [4] was > 99 µM (inactive) each time.

For the compound `CN(C)CC(C(=O)Cc1ccccc1)c1ccccc1` (stereo unspecified), the AC50 in experiment [6] was 7.81 µM (active); in experiment [7], 14.5 µM (active); in [8] it was 7.58 µM (active); in [9], 1.71 µM (active).

With `Cc1ccc(-n2nnnc2SCc2nc3sc(C)c(C)c3c(=O)[nH]2)cc1`, the EC50 in [3] and in [4] was > 99 µM (inactive) in each case.

Take `N#C/C(=C(/O)c1ccc([N+](=O)[O-])o1)c1nc2ccccc2[nH]1`: the EC50 in experiment [10] is 3.57 µM (active); in experiment [11], 27.6 µM (active); in [12], 66 µM (active); in [3], > 99 µM (inactive); in experiment [4] it was 5.53 µM (active). In experiment [13], the AC50 is 3.8 µM (active).

Regarding `Cc1cc(/C=C2\C(=O)NC(=O)N(c3cccc(Br)c3)C2=O)c(C)n1C`, the EC50 in experiment [3] was > 99 µM (inactive); in [4], > 99 µM (inactive); in [14] it was 26.2 µM (active).

Turning to `CCN1CCN(Cc2c(C(=O)N/N=C(\C)c3ccc(Cl)cc3)nnn2-c2nonc2N)CC1`, the EC50 in [15] and in [16] was > 300 µM (not active) throughout. Also, the AC50 in experiment [5] was 8.73 µM (active).

Turning to `CC(=O)Nc1nc(C)c(-c2csc(Nc3cccc(C(C)=O)c3)n2)s1`, the AC50 in experiment [13] was 8.38 µM (active); in experiment [6], 1.67 µM (active); in [7] it was 21 µM (active); in experiment [8], < 0.5 µM (active).
